Assays:
[1] = biological target: T1, Alpha-1B adrenergic receptor (Rattus norvegicus, UniProt P15823); experiment: DRUGMATRIX: Alpha-1B adrenergic receptor radioligand binding (ligand: prazosin); type: cell membranes, Wistar, Liver, Membrane; conditions: Not Active = under 50% inhibition at 10 µM
T1 sequence (P15823 whole entry): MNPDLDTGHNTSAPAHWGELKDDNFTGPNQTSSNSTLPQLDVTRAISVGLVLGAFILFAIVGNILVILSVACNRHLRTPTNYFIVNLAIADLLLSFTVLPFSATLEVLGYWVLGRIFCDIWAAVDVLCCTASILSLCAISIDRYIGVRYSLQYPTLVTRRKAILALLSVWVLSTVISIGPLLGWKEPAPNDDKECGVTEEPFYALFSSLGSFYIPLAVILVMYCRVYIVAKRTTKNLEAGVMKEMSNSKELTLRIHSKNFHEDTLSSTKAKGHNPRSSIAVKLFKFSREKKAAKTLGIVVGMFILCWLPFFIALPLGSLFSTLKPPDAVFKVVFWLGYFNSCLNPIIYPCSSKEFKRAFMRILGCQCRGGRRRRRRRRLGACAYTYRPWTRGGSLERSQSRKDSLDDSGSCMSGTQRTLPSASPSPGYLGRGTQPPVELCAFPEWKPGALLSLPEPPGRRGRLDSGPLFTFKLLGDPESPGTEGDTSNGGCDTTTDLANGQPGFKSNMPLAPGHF

[2] = biological target: Beta-3 adrenergic receptor (Homo sapiens, UniProt P13945); experiment: DRUGMATRIX: Adrenergic beta3 radioligand binding (ligand: [125I] Cyanopindolol); type: cell membranes, HEK293, Membrane; conditions: hek293; Not Active = under 50% inhibition at 10 µM
Beta-3 adrenergic receptor, sequence (P13945 whole entry): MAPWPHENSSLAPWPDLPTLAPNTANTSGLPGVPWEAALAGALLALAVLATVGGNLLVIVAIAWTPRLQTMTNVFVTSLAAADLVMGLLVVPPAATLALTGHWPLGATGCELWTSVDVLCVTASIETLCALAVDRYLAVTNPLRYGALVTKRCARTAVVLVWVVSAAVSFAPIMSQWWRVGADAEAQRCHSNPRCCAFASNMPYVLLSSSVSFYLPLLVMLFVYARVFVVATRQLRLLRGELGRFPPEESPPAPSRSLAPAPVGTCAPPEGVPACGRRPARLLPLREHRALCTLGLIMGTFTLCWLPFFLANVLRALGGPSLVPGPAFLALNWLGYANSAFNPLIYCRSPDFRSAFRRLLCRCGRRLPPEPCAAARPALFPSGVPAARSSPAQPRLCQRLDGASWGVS

[3] = biological target: Sodium-dependent dopamine transporter (Homo sapiens, UniProt Q01959); experiment: DRUGMATRIX: Dopamine Transporter radioligand binding (ligand: [125I] RTI-55); type: cell membranes, CHO-K1, Membrane; conditions: cho-k1, Not Active = under 50% inhibition at 10 µM
Sodium-dependent dopamine transporter, sequence (Q01959 whole entry): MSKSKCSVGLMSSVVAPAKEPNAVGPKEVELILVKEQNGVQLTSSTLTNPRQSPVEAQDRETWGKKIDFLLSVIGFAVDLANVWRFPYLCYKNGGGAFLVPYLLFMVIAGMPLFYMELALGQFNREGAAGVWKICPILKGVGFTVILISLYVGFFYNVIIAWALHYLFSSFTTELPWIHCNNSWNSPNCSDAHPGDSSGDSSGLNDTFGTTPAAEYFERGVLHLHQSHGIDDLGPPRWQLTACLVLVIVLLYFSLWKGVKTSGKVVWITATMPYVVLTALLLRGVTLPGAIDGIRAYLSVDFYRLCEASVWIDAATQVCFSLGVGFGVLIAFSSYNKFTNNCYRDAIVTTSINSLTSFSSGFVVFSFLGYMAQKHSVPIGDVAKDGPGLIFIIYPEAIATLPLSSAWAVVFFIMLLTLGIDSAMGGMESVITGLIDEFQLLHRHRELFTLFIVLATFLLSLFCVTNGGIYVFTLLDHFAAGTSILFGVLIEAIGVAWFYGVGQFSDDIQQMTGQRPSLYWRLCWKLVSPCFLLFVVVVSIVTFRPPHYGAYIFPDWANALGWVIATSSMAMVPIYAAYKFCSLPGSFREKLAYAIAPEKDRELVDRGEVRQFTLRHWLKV

Endothelin-1 receptor = biological target: T2, Endothelin-1 receptor (Homo sapiens, UniProt P25101); type: cell membranes, Membrane; conditions: cho-k1; also: in other assays of this panel Not Active means under 50% inhibition at 10 µM
T2 sequence (P25101 whole entry): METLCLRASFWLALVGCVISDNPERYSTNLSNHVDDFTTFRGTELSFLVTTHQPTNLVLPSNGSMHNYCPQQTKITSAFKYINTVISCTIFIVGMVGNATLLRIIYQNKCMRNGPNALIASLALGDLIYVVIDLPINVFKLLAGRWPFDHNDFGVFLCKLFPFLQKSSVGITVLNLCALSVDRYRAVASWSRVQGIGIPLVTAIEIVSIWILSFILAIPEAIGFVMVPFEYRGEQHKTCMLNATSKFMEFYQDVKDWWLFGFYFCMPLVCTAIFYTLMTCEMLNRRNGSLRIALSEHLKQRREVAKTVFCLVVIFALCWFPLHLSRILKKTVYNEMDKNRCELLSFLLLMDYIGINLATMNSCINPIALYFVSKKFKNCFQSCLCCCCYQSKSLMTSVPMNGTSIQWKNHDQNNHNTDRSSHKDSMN

[4] = DRUGMATRIX: Glutamate, NMDA, Phencyclidine radioligand binding (ligand: [3H] TCP); type: cell membranes, Rattus norvegicus, Wistar, Cerebral cortex, Membrane; conditions: Not Active = under 50% inhibition at 10 µM
[5] = DRUGMATRIX: Interleukin IL-1 radioligand binding (ligand: [125I] interleukin 1beta); type: cell membranes, Membrane; conditions: nih3t3; Not Active = under 50% inhibition at 10 µM
[6] = biological target: T3, Angiotensin-converting enzyme (Oryctolagus cuniculus, UniProt P12822); experiment: biochemical; type: tissue-based, Lung;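 also: enzymatic inhibition of angiotensin-converting enzyme measured with FAPGG as the substrate; in other assays of this panel Not Active means under 50% inhibition at 10 µM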
T3 sequence (P12822 whole entry): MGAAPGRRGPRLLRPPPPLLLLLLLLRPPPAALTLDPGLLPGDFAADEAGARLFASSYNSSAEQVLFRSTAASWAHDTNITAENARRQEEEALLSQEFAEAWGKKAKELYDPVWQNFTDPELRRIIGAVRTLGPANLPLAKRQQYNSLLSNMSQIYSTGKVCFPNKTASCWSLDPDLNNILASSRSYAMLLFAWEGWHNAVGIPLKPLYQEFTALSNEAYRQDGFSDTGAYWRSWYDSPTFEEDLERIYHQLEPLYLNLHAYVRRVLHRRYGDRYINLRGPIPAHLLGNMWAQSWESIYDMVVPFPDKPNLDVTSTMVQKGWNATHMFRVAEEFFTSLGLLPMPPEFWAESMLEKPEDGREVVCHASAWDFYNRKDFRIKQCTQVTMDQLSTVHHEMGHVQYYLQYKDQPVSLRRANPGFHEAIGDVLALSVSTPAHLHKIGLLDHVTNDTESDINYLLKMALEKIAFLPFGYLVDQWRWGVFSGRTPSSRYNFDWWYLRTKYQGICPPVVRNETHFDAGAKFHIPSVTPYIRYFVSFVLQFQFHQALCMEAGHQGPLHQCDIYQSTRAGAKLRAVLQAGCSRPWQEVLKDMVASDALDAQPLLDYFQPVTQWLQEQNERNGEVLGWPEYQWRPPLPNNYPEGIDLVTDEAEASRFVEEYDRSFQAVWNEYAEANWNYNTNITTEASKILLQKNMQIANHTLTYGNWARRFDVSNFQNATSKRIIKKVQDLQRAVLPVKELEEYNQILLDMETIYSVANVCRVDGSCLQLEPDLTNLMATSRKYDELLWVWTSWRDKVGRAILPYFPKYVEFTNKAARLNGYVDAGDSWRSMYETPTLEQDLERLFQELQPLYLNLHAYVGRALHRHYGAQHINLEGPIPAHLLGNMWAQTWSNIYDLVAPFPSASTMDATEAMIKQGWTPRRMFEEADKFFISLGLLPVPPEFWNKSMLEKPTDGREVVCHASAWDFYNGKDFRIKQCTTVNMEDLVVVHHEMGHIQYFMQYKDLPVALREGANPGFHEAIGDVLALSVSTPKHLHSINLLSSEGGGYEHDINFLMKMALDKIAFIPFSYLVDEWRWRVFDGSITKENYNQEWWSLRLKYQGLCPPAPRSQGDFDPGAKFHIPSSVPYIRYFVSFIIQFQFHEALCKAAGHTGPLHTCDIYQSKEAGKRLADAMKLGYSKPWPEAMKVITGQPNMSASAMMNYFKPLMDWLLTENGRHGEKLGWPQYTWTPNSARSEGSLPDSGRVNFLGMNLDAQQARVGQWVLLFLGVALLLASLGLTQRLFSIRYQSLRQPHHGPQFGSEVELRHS

[7] = biological target: Mitogen-activated protein kinase 1 (Homo sapiens, UniProt P28482); experiment: DRUGMATRIX: Protein Serine/Threonine Kinase, ERK2 enzyme inhibition (substrate: Myelin Basic Protein); design: species or system Escherichia coli; conditions: Not Active = under 50% inhibition at 10 µM
Mitogen-activated protein kinase 1, sequence (P28482 whole entry): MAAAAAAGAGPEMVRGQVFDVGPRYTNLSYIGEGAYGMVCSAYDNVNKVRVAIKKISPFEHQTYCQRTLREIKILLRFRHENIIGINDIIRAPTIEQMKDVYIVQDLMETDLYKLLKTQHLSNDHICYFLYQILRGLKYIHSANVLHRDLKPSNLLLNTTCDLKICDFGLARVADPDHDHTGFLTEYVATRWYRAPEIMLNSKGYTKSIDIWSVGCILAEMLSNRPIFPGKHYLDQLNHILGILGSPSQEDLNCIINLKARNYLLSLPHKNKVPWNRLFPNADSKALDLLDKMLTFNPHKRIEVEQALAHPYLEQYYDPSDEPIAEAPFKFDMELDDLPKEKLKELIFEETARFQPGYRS

| Compound | IC50 [1] | IC50 [2] | IC50 [3] | IC50 (Endothelin-1 receptor) | IC50 [4] | Ki [4] | IC50 [5] | Ki [5] | IC50 [6] | IC50 [7] | IC50 ([1]; read-out: IC50) | Ki ([1]; read-out: Ki) | Ki [1] | Ki [2] | IC50 ([3]; read-out: IC50) | Ki ([3]; read-out: Ki) | Ki (Endothelin-1 receptor) | Ki [6] | Ki [7] |
| --- | --- | --- | --- | --- | --- | --- | --- | --- | --- | --- | --- | --- | --- | --- | --- | --- | --- | --- | --- |
| CC1CN(c2cc3c(cc2F)c(=O)c(C(=O)O)cn3-c2ccc(F)cc2F)CCN1 (configuration not stated) [TEMAFLOXACIN] | Not Active | Not Active | Not Active | Not Active | Not Active | Not Active | Not Active | Not Active | Not Active | Not Active | – | – | – | – | – | – | – | – | – |
| CC(C)(C)NCC(O)c1cc(O)cc(O)c1 (configuration not stated) [TERBUTALINE] | Not Active | Not Active | Not Active | Not Active | Not Active | Not Active | Not Active | Not Active | Not Active | Not Active | – | – | – | – | – | – | – | – | – |
| CN(C)[C@@H]1C(O)=C(C(N)=O)C(=O)[C@@]2(O)C(O)=C3C(=O)c4c(O)cccc4[C@@](C)(O)[C@H]3C[C@@H]12 [TETRACYCLINE] | Not Active | Not Active | Not Active | Not Active | Not Active | Not Active | Not Active | Not Active | Not Active | Not Active | – | – | – | – | – | – | – | – | – |
| c1ccc2[nH]c(-c3cscn3)nc2c1 [THIABENDAZOLE] | Not Active | Not Active | Not Active | Not Active | Not Active | Not Active | Not Active | Not Active | Not Active | Not Active | – | – | – | – | – | – | – | – | – |
| Cc1ccc(C(=O)C(C)CN2CCCCC2)cc1 (configuration not stated) [TOLPERISONE] | Not Active | Not Active | Not Active | Not Active | Not Active | Not Active | Not Active | Not Active | Not Active | Not Active | – | – | – | – | – | – | – | – | – |
| NC(CO)(CO)CO [TROMETHAMINE] | Not Active | Not Active | Not Active | Not Active | Not Active | Not Active | Not Active | Not Active | Not Active | Not Active | – | – | – | – | – | – | – | – | – |
| CN1[C@@H]2CC[C@H]1C[C@@H](OC(=O)c1c[nH]c3ccccc13)C2 [TROPISETRON] | Not Active | Not Active | Not Active | Not Active | Not Active | Not Active | Not Active | Not Active | Not Active | Not Active | – | – | – | – | – | – | – | – | – |
| COc1cc(C(=O)NC2CCCNC2)cc(OC)c1OC (configuration not stated) [TROXIPIDE] | Not Active | Not Active | Not Active | Not Active | Not Active | Not Active | Not Active | Not Active | Not Active | Not Active | – | – | – | – | – | – | – | – | – |
| CC(C)[C@H](N)C(=O)OCCOCn1cnc2c(=O)nc(N)[nH]c21 [VALACYCLOVIR] | Not Active | Not Active | Not Active | Not Active | Not Active | Not Active | Not Active | Not Active | Not Active | Not Active | – | – | – | – | – | – | – | – | – |
| CN[C@H](CC(C)C)C(=O)N[C@H]1C(=O)N[C@@H](CC(N)=O)C(=O)N[C@H]2C(=O)N[C@H]3C(=O)N[C@H](C(=O)N[C@H](C(=O)O)c4cc(O)cc(O)c4-c4cc3ccc4O)[C@H](O)c3ccc(c(Cl)c3)Oc3cc2cc(c3O[C@@H]2O[C@H](CO)[C@@H](O)[C@H](O)[C@H]2O[C@H]2C[C@](C)(N)[C@H](O)[C@H](C)O2)Oc2ccc(cc2Cl)[C@H]1O [VANCOMYCIN] | Not Active | Not Active | Not Active | Not Active | Not Active | Not Active | Not Active | Not Active | Not Active | Not Active | – | – | – | – | – | – | – | – | – |
| COc1ccc(C(CN(C)C)C2(O)CCCCC2)cc1 (configuration not stated) [VENLAFAXINE] | Not Active | Not Active | Not Active | Not Active | Not Active | Not Active | Not Active | Not Active | Not Active | Not Active | – | – | – | – | – | – | – | – | – |
| COC(=O)[C@@H]1[C@H]2C[C@H]3c4[nH]c5ccccc5c4CCN3C[C@@H]2CC[C@@H]1O [YOHIMBINE] | – | Not Active | Not Active | Not Active | Not Active | Not Active | Not Active | Not Active | Not Active | Not Active | 1190 nM | 658 nM | – | – | – | – | – | – | – |
| IVERMECTIN | Not Active | Not Active | – | Not Active | Not Active | Not Active | Not Active | Not Active | Not Active | Not Active | – | – | Not Active | Not Active | 4460 nM | 3540 nM | Not Active | Not Active | Not Active |

— ChEMBL document CHEMBL1909046, “DrugMatrix in vitro pharmacology data”
